Laboratory results from patent US5079231A, “Immunostimulating peptides, a process for their preparation and pharmaceutical compositions containing them” (Ellem Industria Farmaceutica S.p.A., priority 1988, dated 1992).
No end group written: not given here.

What was measured:
T-lymphocytes = conditions: known peptides, earlier patent applications and literature; cited from earlier work
[1] = Resistance to the in vitro simulated gastric ambient; type: in vitro ADME; conditions: 37° C., 3 hours, gastric simulated juice USP XXl (HCl+pepsin)
Experimental: Resistance to the in vitro simulated gastric ambient
The hexapeptides Arg-Lys-Glu-Arg-Ala-Arg and Arg-Ala-Arg-Arg-Lys-Glu are stable at 37° C. for 3 hours in in vitro simulated gastric ambient using the gastric simulated juice USP XXl (HCl+pepsin).

[2] = known tripeptides; cited from earlier work

Arg-Lys-Asp
immunostimulating activity (maturation and functionality of T-lymphocytes) (T-lymphocytes): displays a similar behaviour

RARRKE [ARG--ALA--ARG--ARG--LYS--GLU, Arg-Ala-Arg-Arg-Lys-Glu]
Resistance to the in vitro simulated gastric ambient [1]: stable

RKERAR [ARG--LYS--GLU--ARG--ALA--ARG, Arg-Lys-Glu-Arg-Ala-Arg]
Resistance to the in vitro simulated gastric ambient [1]: stable

Arg-Gly-Asp
immunostimulating activity (maturation and functionality of T-lymphocytes) (T-lymphocytes): displays a similar behaviour

Arg-Ala-Arg
stability to the in vitro simulated gastric juice [2]: stable | immunostimulating activity (maturation and functionality of T-lymphocytes) (T-lymphocytes): endowed with immunostimulating activity

Arg-Lys-Glu
stability to the in vitro simulated gastric juice [2]: stable | immunostimulating activity (maturation and functionality of T-lymphocytes) (T-lymphocytes): has immunostimulating properties
